Experimental data: ChEMBL document CHEMBL1136141, “2-Phenyl-5,6-dihydro-2H-thieno[3,2-c]pyrazol-3-ol derivatives as new inhibitors of bacterial cell wall biosynthesis” (Bioorg Med Chem Lett, 2003)
pIC50: −log10 of the molar value. Converted amounts (≈) assume the structure as drawn.

What was measured:
[1] = tested on: Staphylococcus aureus; test: Minimum inhibitory activity against Staphylococcus aureus GC 2216 (ATCC); assay type: functional
[2] = tested on: Enterococcus faecalis; test: Minimum inhibitory activity against Enterococcus faecalis GC 4555 (ATCC); assay type: functional
[3] = tested on: Enterococcus faecalis; test: Minimum inhibitory activity against Enterococcus faecalis GC 2242 (VRE); assay type: functional
[4] = target: T1, UDP-N-acetylmuramate--L-alanine ligase (Staphylococcus aureus, UniProt O31211); test: In vitro inhibitory activity against Staphylococcus aureus UDP-N-acetylmuramoyl-L-alanine synthetase
T1 sequence (O31211 whole entry): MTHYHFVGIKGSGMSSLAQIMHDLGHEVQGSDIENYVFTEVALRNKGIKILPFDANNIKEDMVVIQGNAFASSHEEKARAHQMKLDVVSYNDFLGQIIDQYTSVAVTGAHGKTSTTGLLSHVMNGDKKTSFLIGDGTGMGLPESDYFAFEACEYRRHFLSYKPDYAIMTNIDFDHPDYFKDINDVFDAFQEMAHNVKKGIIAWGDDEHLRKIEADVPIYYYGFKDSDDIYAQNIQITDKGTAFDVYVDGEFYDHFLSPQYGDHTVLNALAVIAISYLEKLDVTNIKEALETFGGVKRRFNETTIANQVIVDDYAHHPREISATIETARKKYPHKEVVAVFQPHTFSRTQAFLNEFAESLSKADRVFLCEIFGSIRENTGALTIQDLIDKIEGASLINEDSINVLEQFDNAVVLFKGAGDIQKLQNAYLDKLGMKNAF

[5] = target: T2, UDP-N-acetylenolpyruvoylglucosamine reductase (Staphylococcus aureus, UniProt P61431); test: In vitro inhibitory activity against Staphylococcus aureus UDP-N-acetylmuramate dehydrogenase
T2 sequence (P61431 whole entry): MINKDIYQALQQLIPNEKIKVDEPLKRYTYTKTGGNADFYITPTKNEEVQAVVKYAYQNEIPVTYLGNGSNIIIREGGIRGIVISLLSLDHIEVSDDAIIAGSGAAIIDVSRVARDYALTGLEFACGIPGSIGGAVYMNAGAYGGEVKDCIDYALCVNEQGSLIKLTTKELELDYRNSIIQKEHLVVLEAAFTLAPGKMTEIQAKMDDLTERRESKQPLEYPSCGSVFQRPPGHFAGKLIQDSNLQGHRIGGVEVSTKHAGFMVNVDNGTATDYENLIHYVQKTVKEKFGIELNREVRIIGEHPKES

[6] = Minimum inhibitory activity against Streptococcus pneumoniae GC1894 (PRSP); assay type: functional
[7] = target: T3, UDP-N-acetylmuramoylalanine--D-glutamate ligase (Staphylococcus aureus, UniProt P0A091); test: In vitro inhibitory activity against Staphylococcus aureus UDP-N-acetylmuramoyl-L-alanyl-D-glutamate synthetase
T3 sequence (P0A091 whole entry): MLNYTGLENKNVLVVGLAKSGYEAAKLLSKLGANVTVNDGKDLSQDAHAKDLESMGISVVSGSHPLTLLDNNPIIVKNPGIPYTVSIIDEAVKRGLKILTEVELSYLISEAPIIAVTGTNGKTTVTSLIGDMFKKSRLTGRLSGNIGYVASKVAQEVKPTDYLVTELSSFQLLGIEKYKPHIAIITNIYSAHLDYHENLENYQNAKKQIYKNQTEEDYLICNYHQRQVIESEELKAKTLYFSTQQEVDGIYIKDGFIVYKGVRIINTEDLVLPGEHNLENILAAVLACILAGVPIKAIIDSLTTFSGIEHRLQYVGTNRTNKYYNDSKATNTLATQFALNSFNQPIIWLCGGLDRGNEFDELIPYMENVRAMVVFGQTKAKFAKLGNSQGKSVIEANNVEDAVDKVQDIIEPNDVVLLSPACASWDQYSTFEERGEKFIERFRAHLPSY

[8] = tested on: Escherichia coli; test: Minimum inhibitory activity against Escherichia coli GC 4559; assay type: functional
[9] = Minimum inhibitory activity against MSCNS GC 646; assay type: functional
[10] = tested on: Staphylococcus aureus; test: Minimum inhibitory activity against Staphylococcus aureus GC 4543 (MSSA); assay type: functional
[11] = Minimum inhibitory activity in presence of 4% bovine serum albumin against Streptococcus pneumoniae GC1894 (PRSP); assay type: functional
[12] = tested on: Staphylococcus aureus; test: Minimum inhibitory activity against Staphylococcus aureus GC 1131 (MRSA); assay type: functional
[13] = tested on: Escherichia coli; test: Minimum inhibitory activity against Escherichia coli GC 4560; assay type: functional

SMILES	MIC [1] [µg/mL]	MIC [2] [µg/mL]	MIC [3] [µg/mL]	pIC50 [4]	pIC50 [5]	MIC [6] [µg/mL]	pIC50 [7]	MIC [8] [µg/mL]	MIC ([9]; Staphylococcus) [µg/mL]	MIC [10] [µg/mL]	MIC [11] [µg/mL]	MIC [12] [µg/mL]	MIC [13] [µg/mL]	MIC [9] [µg/mL]
O=[N+]([O-])c1ccc(-n2nc3c(c2O)SCC3)cc1	4 (≈ 15.2 µM)	32 (≈ 122 µM)	64 (≈ 243 µM)	4.14	4.67	4 (≈ 15.2 µM)	4.44	> 128	1 (≈ 3.8 µM)	2 (≈ 7.6 µM)	> 128	64 (≈ 243 µM)	> 128	
Oc1c2c(nn1-c1ccccc1C(F)(F)F)CCS2	32 (≈ 112 µM)	32 (≈ 112 µM)	16 (≈ 55.9 µM)	< 4.06	< 4.06	8 (≈ 27.9 µM)	< 4.06	> 128	64 (≈ 224 µM)	32 (≈ 112 µM)	> 128	32 (≈ 112 µM)	128 (≈ 447 µM)	
Oc1c2c(nn1-c1ccccc1)CCS2	16 (≈ 73.3 µM)	32 (≈ 147 µM)	4 (≈ 18.3 µM)	< 3.94	< 3.94	4 (≈ 18.3 µM)	4.02	> 128		32 (≈ 147 µM)	> 128	16 (≈ 73.3 µM)	> 128	16 (≈ 73.3 µM)
CN[C@H](CC(C)C)C(=O)N[C@H]1C(=O)N[C@@H](CC(N)=O)C(=O)N[C@H]2C(=O)N[C@H]3C(=O)N[C@H](C(=O)N[C@H](C(=O)O)c4cc(O)cc(O)c4-c4cc3ccc4O)[C@H](O)c3ccc(c(Cl)c3)Oc3cc2cc(c3O[C@@H]2O[C@H](CO)[C@@H](O)[C@H](O)[C@H]2O[C@H]2C[C@](C)(N)[C@H](O)[C@H](C)O2)Oc2ccc(cc2Cl)[C@H]1O [VANCOMYCIN]		2 (≈ 1.38 µM)	> 128			< 0.12		> 128					0.25 (≈ 0.173 µM)	
N#Cc1cccc(-n2nc3c(c2O)SCC3)c1	8 (≈ 32.9 µM)	8 (≈ 32.9 µM)	8 (≈ 32.9 µM)	4.26	4.24	4 (≈ 16.4 µM)	4.33	> 128	2 (≈ 8.22 µM)	16 (≈ 65.8 µM)	> 128	32 (≈ 132 µM)	64 (≈ 263 µM)	
Oc1c2c(nn1-c1ccc(Br)cc1)CCS2	2 (≈ 6.73 µM)	16 (≈ 53.8 µM)	32 (≈ 108 µM)	4.42	4.92	1 (≈ 3.36 µM)	4.52	> 128	1 (≈ 3.36 µM)	4 (≈ 13.5 µM)	> 128	16 (≈ 53.8 µM)	> 128	
Oc1c2c(nn1-c1cc(C(F)(F)F)cc(C(F)(F)F)c1)CCS2	32 (≈ 90.3 µM)	32 (≈ 90.3 µM)	16 (≈ 45.2 µM)	< 4.15	< 4.15	2 (≈ 5.65 µM)	< 4.15	> 128	> 128	32 (≈ 90.3 µM)	> 128	32 (≈ 90.3 µM)	> 128	
Oc1c2c(nn1-c1ccc(Cl)cc1)CC(c1ccccc1)S2 (centres undefined)	64 (≈ 195 µM)	> 128	64 (≈ 195 µM)	< 4.12	4.48	64 (≈ 195 µM)	4.13	> 128	128 (≈ 389 µM)	128 (≈ 389 µM)	> 128	128 (≈ 389 µM)	128 (≈ 389 µM)	
Oc1c2c(nn1-c1ccc(F)cc1)CCS2	2 (≈ 8.46 µM)	8 (≈ 33.9 µM)	8 (≈ 33.9 µM)	< 3.98	4.29	2 (≈ 8.46 µM)	< 3.98	> 128	0.25 (≈ 1.06 µM)	4 (≈ 16.9 µM)	> 128	2 (≈ 8.46 µM)	32 (≈ 135 µM)	
CC(C)(C)c1ccc(-n2nc3c(c2O)SCC3)cc1	> 128	> 128	> 128	< 4.04	< 4.04	64 (≈ 233 µM)	< 4.04	> 128	> 128	128 (≈ 466 µM)	> 128	> 128	> 128	
CC(C)c1ccc(-n2nc3c(c2O)SCC3)cc1	128 (≈ 492 µM)	> 128	> 128	< 4.02	< 4.02	32 (≈ 123 µM)	< 4.02	> 128	128 (≈ 492 µM)	128 (≈ 492 µM)	> 128	128 (≈ 492 µM)	> 128	
Oc1c2c(nn1-c1cccc(C(F)(F)F)c1)CCS2	2 (≈ 6.99 µM)	16 (≈ 55.9 µM)	8 (≈ 27.9 µM)	< 4.06	4.13	0.5 (≈ 1.75 µM)	4.17	> 128	2 (≈ 6.99 µM)	1 (≈ 3.49 µM)	> 128	4 (≈ 14 µM)	128 (≈ 447 µM)	
O=[N+]([O-])c1cccc(-n2nc3c(c2O)SCC3)c1	16 (≈ 60.8 µM)	64 (≈ 243 µM)	32 (≈ 122 µM)	4.06	4.63	4 (≈ 15.2 µM)	4.46	> 128	32 (≈ 122 µM)	32 (≈ 122 µM)	> 128	32 (≈ 122 µM)	> 128	
Oc1c2c(nn1-c1cccc(Cl)c1)CCS2	8 (≈ 31.7 µM)	32 (≈ 127 µM)	8 (≈ 31.7 µM)	4.20	< 4.00	2 (≈ 7.91 µM)	4.48	> 128	32 (≈ 127 µM)	32 (≈ 127 µM)	> 128	32 (≈ 127 µM)	> 128	
